In patent US10239923B2, “Specific amyloid beta binding peptides and the use of same for treating and diagnosing alzheimer's dementia” (Forschungszentrum Juelich GmbH, priority 2015, dated 2019):
Square brackets hold non-standard residues; d marks the D form. Peptide text beside a SMILES is read from it.

Experiments:
[1] = biological target: T1, Aβ1-42 monomers versus Aβ1-42 oligomers and fibrils (biotinylated, D-enantiomeric, immobilized) (Homo sapiens, UniProt P05067); test: Monoclonal phage ELISA; assay type: binding
T1 construct: biotinylated, D-enantiomeric Aβ1-42 monomers
T1 sequence (P05067 672-713): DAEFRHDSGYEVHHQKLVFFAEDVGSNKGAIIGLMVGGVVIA
Text: The specificity of the peptide results from the difference in % of the absorption values for the target molecule or the bait (for example A beta monomer) and the normalized absorption values for the competitors (for example A beta oligomers and fibrils) in the monoclonal phage ELISA.
The absorption values then constitute the affinity of individual phage clones for a particular immobilized A beta species. Here, the specificity is not dependent on the strength of the affinity, but instead only on the difference of the affinities between the species. […] The terms “competitors” and “target molecule” or “bait” are defined as specified below.
A method for normalizing the obtained values should therefore be performed. From all absorption values of the individual phage clone in the monoclonal phage ELISA, the values of the phage antibodies tested for cross-reaction can be used as background. This occurs in accordance with the previously immobilized species. The signal values of the phage antibody from the reaction trays with immobilized Aβ1-42 oligomers for this purpose can be removed from the signal values of the individual phage clone from the reaction trays with immobilized Aβ1-42 oligomers. A similar process is then carried out for Aβ1-42 monomers. In this way, a possible background signal of the phage antibody can initially be calculated from the signals of the individual phage clone. […] Only in this way is an equal interpretation of the results particularly in respect of the assessment of the specificity of the individual phage clone possible (see FIG. 2).
The affinity of individual phage clones with respect to the target molecule and the competitors was examined by means of ELISA. For this purpose, all three species were immobilized in biotinylated form on a polystyrene surface at streptavidin bound thereon. Since, during the panning rounds, oligomers and fibrils were added at the same time as competitors, these two species were immobilized in the monoclonal phage ELISA, likewise mixed. […] The streptavidin-coated microtiter plates were pre-washed as specified by the manufacturer. […] For immobilization, 100 μl were used per reaction tray and were incubated for 15 minutes at room temperature. After having washed the entire plate(s) twice with 150 μl 1×TBS per reaction tray, a blocking step with 150 μl 1×TBS/0.1% (v/v) Tween-20/1% (w/v) BSA was performed for an hour at room temperature. Three washing steps with 150 μl 1×TBS/0.1% (v/v) Tween-20 then followed per reaction tray. The amplified individual phage clones were mixed 1:1 with 1× TBS/1% (w/v) BSA. The antibody 6E10 was diluted 1:10,000 in 1×TBS/0.1% (v/v) Tween-20. […] After washing five times with 150 μl 1×TBS/0.1% (v/v) Tween-20 per reaction tray, 200 μl 1×TBS/0.1% (v/v) Tween-20 were placed in each reaction tray, and the plate(s) incubated for one hour at room temperature. The solutions were removed and replaced as follows: In all reaction trays that had been incubated previously with individual phage clone dilutions or the batch without phages, 100 μl of a phage antibody diluted 1:5,000 in 1×TBS/0.1% (v/v) Tween-20 were now added. The enzyme horseradish peroxidase (HRP) was coupled to this antibody and later served for the conversion of a substrate (TMB). […] At the same time, 100 μl of a second antibody diluted 1:1,000 in 1×TBS/0.1% (v/v) Tween-20 were now added to all reaction trays that had been previously incubated with the dilution of the 6E10 antibody, said second antibody being able to identify and bind to the 6E10 antibody originating from mice. This antibody is also HRP-coupled and thus allows a quantification of the binding of the first antibody to the immobilized target molecules or the plastics surface of the reaction tray. After one hour of incubation at room temperature, the plate(s) was/were washed 10 times with 150 μl 1×TBS/0.1% (v/v) Tween-20 per reaction tray. The signal was detected by adding the substrate 3,3′,5,5′-tetramethylbenzidine (TMB). […]

[2] = biological target: Aβ1-42 species of different size (Homo sapiens, UniProt P05067); test: Density gradient centrifugation, tris-tricine SDS gel and silver staining of Aβ1-42 species; assay type: biochemical
Aβ1-42 species of different size, sequence (P05067 672-713 limits assumed): as the sequence (P05067 672-713) above
Experimental: The batch was then incubated either with or without addition of peptide for a further 40 minutes and was then placed on an iodixanol density gradient. The gradient was then centrifuged, wherein the contents of the sample (Aβ1-42 species of different size) diffused within the gradient in accordance with their size and shape. The gradient was fractionated after centrifugation into 15 fractions (1-15), and the first 14 individual fractions were applied to a tris-tricine SDS gel. The contents per fraction were separated electrophoretically. […] The batch was then incubated either without (A) or with addition of different concentrations of Mosd1 (B=10 μM Mossd1; C=20 μM Mosd1; D=40 μM Mosd1; E=80 μM Mosd1) for a further 40 minutes and was then placed on an iodixanol density gradient. The gradient was then centrifuged, wherein the contents of the sample (Aβ1-42 species of different size) diffused within the gradient in accordance with their size and shape. The gradient was fractionated after centrifugation (1-15), and the individual fractions were applied to a tris-tricine SDS gel. The contents per fraction were separated electrophoretically.

Aβ1-42 = Aβ1-42 (Homo sapiens, UniProt P05067); test: TEM of Aβ1-42 incubated with and without Mosd1; assay type: biochemical; settings: 10 μM Aβ1-42 with 10 μM Mosd1, 24 hours, room temperature
Aβ1-42, sequence (P05067 672-713 limits assumed): as the sequence (P05067 672-713) above
Text: The scale bars correspond to 0.25 μm.

PC-12 cells = test: MTT reduction test, Aβ1-42-induced cell toxicity; assay type: cell-based; settings: batch containing only Mosd1, 24 hours, 37° C.
Experimental: The samples were placed in the culture medium of the cells and were incubated over 24 hours with the cells at 37° C. The viability of the cells was then determined on the basis of an MTT test. Here, a metabolic reactant was supplied to the cells, which reactant could be converted by metabolically active cells (living cells). Formazan crystals are the product of this conversion and can be dissolved. The coloration of the medium after solubilization corresponds to the conversion rate of the reactant and therefore the viability of the cells. Untreated cells (medium, white chequered pattern) served as living control, and the proportion of vital cells was defined as 100%. The values of the other batches were normalized to this value.

[3] = tested on: Neuro-2a cells stably transfected with human APP695; test: Influence on APP-expressing cells; assay type: cell-based, murine; settings: incubation with 10 μM or 100 μM Mosd1
Experimental: FIG. 9: The murine neuroblastoma cell line Neuro-2a serves as a model for neuronal cells and is thus suitable for analyzing the symptoms of AD. […] In this way, the influence of naturally occurring Aβ1-42 species can be examined directly in neuronal cells. In the experiment, Neuro-2a cells were cultivated without APP parallel to those with the APP transfection. […] By incubation with 10 μM or 100 μM Mosd1, however, this pathological phenotype can be reversed, and the cells develop in accordance with the physiological phenotype corresponding to wild-type Neuro-2a cells. This means that the cell number increases and the cells accumulate, have a polygonal shape and form numerous cell contact points and spurs (middle and right-hand image).

[4] = 80 μM Aβ1-42 pre-incubated […], 40 μM peptide for 40 minutes

CSCC[C@@H](NC(=O)[C@@H](Cc1c[nH]cn1)NC(=O)[C@@H](Cc1ccc(O)cc1)NC(=O)[C@@H](CO)NC(=O)[C@H](NC(=O)[C@@H](CC(C)C)NC(=O)[C@@H](Cc1ccc(O)cc1)NC(=O)[C@@H](CO)NC(=O)[C@H](N)Cc1ccc(O)cc1)[C@H](C)O)C(=O)N[C@@H](C(=O)N[C@H](Cc1c[nH]c2ccccc12)C(=O)N[C@H](CCCNC(=N)N)C(N)=O)C(C)C [Mosd1] (H-[dY][dS][dY][dL][dT][dS][dY][dH][dM][dV][dW][dR]-NH2)
absorption values (signal strength) for monomeric Aβ1-42 ([1]; individual phage clone, absorption at 450 nm): highest absorption values for monomeric Aβ1-42 of all tested clones | Difference in signal strength between Aβ1-42 monomers (100%) and Aβ1-42 oligomers and fibrils ([1]; individual phage clones, species immobilized at 320 nM, absorption at 450 nm normalized with 6E10 control, higher = more monomer-specific): 71.989% | binding preference for monomeric Aβ1-42 over Aβ1-42 oligomers and fibrils or plastics surface ([1]; normalized absorption values at 450 nm): greatest difference in the absorption values for monomeric Aβ1-42 and oligomeric or fibrillar Aβ1-42 | oligomeric Aβ1-42 species (fractions 4-7) [2, 4]: reduce | proportions of high-molecular Aβ1-42 species (fractions 10-14) [2, 4]: increase | signal strength in fractions 1-2 (monomeric Aβ) ([2]; concentrations higher than 20 μM Mosd1): reduction of the signal strength | proportion of small Aβ1-42 species and toxic oligomers ([2]; higher concentrations, 40 μM and 80 μM Mosd1, 80 μM Aβ1-42): reduce the proportion of small Aβ1-42 species and toxic oligomers considerably | proportion of toxic oligomers (fractions 4-7) ([2]; lower concentrations, 10 μM and 20 μM Mosd1, 80 μM Aβ1-42): reduce the proportion of toxic oligomers | aggregate morphology in TEM (Aβ1-42): formation of large, high-molecular aggregates | viability of PC-12 cells, peptide alone (PC-12 cells): no influence | pathological phenotype of APP-expressing cells [3]: reversed
